Test results as given in patent publication US4252808A, “β-Lactam antibacterial agents, their use in pharmaceutical compositions, the process for their preparation and intermediates for use in that process” (Beecham Group Limited, priority 1978, dated 1981).
Converted amounts (≈) assume the structure as drawn. Counter-ions that a name gives are not always drawn.

Key:
Type in all cases: cell-based
B. subtilis = assay: MIC, nutrient agar; settings: Bacillus subtilis
Staph. aureus Oxford [1] = assay: MIC, nutrient agar; settings: Staphylococcus aureus
Staph. aureus Russell [2] = assay: MIC, nutrient agar; settings: Staphylococcus aureus, Staph. aureus Russell (lactamase-producing strain)
Excerpt: *Lactamase-producing strain
*lactamase producing strain

β-Haemolytic Strep CN10 = assay: MIC, nutrient agar
E. coli JT 4 = assay: MIC, nutrient agar; settings: Escherichia coli, JT4
Ps. aeruginosa Dalgleish = assay: MIC, nutrient agar; settings: Pseudomonas aeruginosa, Ps. aeruginosa Dalgleish 10^-2
Klebsiella aerogenes A = assay: MIC, nutrient agar
Enterobacter cloacae Nl = assay: MIC, nutrient agar
P. rettgeri = assay: MIC, nutrient agar; settings: Providencia rettgeri
P. mirabilis C977 = assay: MIC, nutrient agar; settings: Proteus mirabilis
P. morganii = assay: MIC, nutrient agar; settings: Morganella morganii
Staph. aureus Oxford [3] = assay: MIC, nutrient broth (10^-4 dilution); settings: Staphylococcus aureus
Staph. aureus Russell [4] = assay: MIC, nutrient broth (10^-4 dilution); settings: Staphylococcus aureus, Staph. aureus Russell (lactamase producing strain)
Excerpt: *Lactamase producing strains
*Lactamase producing strain

E. coli JT 1 [5] = assay: MIC, nutrient broth (10^-4 dilution); settings: Escherichia coli, JT1
E. coli NCTC 10418 [6] = assay: MIC, nutrient broth (10^-4 dilution); settings: Escherichia coli, NCTC10418
E. coli JT 1 [7] = assay: MIC, nutrient broth; settings: Escherichia coli, JT1
E. coli NCTC 10418 [8] = assay: MIC, nutrient broth; settings: Escherichia coli, NCTC10418
Staph. aureus Oxford [9] = assay: MIC, nutrient broth; settings: Staphylococcus aureus
Staph. aureus Russell [10] = assay: MIC, nutrient broth; settings: Staphylococcus aureus, Staph. aureus Russell (lactamase producing strain)
Excerpt: | *lactamase producing strain

| MIC (B. subtilis) | MIC (Staph. aureus Oxford [1]) | MIC (Staph. aureus Russell [2]) | MIC (Staph. aureus Oxford [3]) | MIC (Staph. aureus Russell [4]) | MIC (E. coli JT 1 [5]) | MIC (E. coli NCTC 10418 [6]) | SMILES | MIC (β-Haemolytic Strep CN10) | further results |
| --- | --- | --- | --- | --- | --- | --- | --- | --- | --- |
| < 0.2 µg/mL | 2.5 µg/mL (≈ 6.77 µM) | 5 µg/mL (≈ 13.5 µM) | – | – | – | – | CC1=C(C(=O)O)N2C(=O)[C@@H](NC(=O)COc3ccccc3)[C@H]2n2nncc21 [Compound 41, (3aR,4S) 4,5-Dihydro-5-oxo-8-methyl-4-phenoxyacetamido-3aH azeto[1,2-a]v-triazolo[3,4-c]pyrimidine-7-carboxylate acid] | 0.5 µg/mL (≈ 1.35 µM) | MIC (E. coli JT 4): 100 µg/mL (≈ 271 µM); MIC (Ps. aeruginosa Dalgleish): 100 µg/mL (≈ 271 µM); MIC (Klebsiella aerogenes A): 100 µg/mL (≈ 271 µM); MIC (Enterobacter cloacae Nl): 100 µg/mL (≈ 271 µM); MIC (P. rettgeri): 100 µg/mL (≈ 271 µM); MIC (P. mirabilis C977): > 100 µg/mL; MIC (P. morganii): > 100 µg/mL |
| – | – | – | 31 µg/mL (≈ 71.9 µM) | 125 µg/mL (≈ 290 µM) | 125 µg/mL (≈ 290 µM) | 125 µg/mL (≈ 290 µM) | O=C(O)C1=Cc2c(-c3ccccc3)nnn2[C@@H]2[C@H](NC(=O)[C@H](O)c3ccccc3)C(=O)N12 [Compound 18, (3aR,4S) 4,5-Dihydro-5-oxo-9-phenyl-4-D-mandelylamino-3aH-azeto-[1,2a]v-triazolo[3,4-c]pyrimidine-7-carboxylic acid] | – | – |
| – | – | – | – | – | – | – | O=C(COc1ccccc1)N[C@@H]1C(=O)N2C(C(=O)O)=Cc3c(-c4ccc([N+](=O)[O-])cc4)nnn3[C@H]12 [Compound 33, (3aR,4S) 4,5-Dihydro-5-oxo-9-p-nitrophenyl-4-phenoxy-acetamido-3aH azeto[1,2-a]v-triazolo[3,4-c]pyrimidine-7-carboxylic acid] | – | MIC (E. coli JT 1 [7]): 500 µg/mL (≈ 1050 µM); MIC (E. coli NCTC 10418 [8]): 500 µg/mL (≈ 1050 µM); MIC (Staph. aureus Oxford [9]): 16 µg/mL (≈ 33.6 µM); MIC (Staph. aureus Russell [10]): 31 µg/mL (≈ 65.1 µM) |
| 2.5 µg/mL (≈ 7.04 µM) | 10 µg/mL (≈ 28.1 µM) | 50 µg/mL (≈ 141 µM) | – | – | – | – | O=C(COc1ccccc1)N[C@@H]1C(=O)N2C(C(=O)O)=Cc3cnnn3[C@H]12 [Compound 11, (3aR,4S)4,5-dihydro-5-oxo-4-phenoxyacetamido-3aH-azeto-[1,2-a]v-triazolo[3,4-c]pyrimidine-7-carboxylic acid] | 10 µg/mL (≈ 28.1 µM) | – |
| – | – | – | 62 µg/mL | 125 µg/mL | 125 µg/mL | 125 µg/mL | N[C@@H](C(=O)N[C@@H]1C(=O)N2C(C(=O)O)=Cc3c(-c4ccccc4)nnn3[C@H]12)c1ccccc1 [Compound 24, (3aR,4S)-4,5-Dihydro-5-oxo-9-phenyl-4-D-α-phenylglycylamino-3aH-azeto[1,2-a]v-triazolo [3,4-c]pyrimidine-7-carboxylic acid, trifluoroacetic acid salt] | – | – |
